Source: US12673964B2, “Crystal of thyroid hormone B receptor agonist, process for preparing the same and use thereof” (GANNEX PHARMA CO., LTD., priority 2020, dated 2026)

Tests used:
[1] = Hygroscopicity test of crystal form I (dynamic moisture adsorption instrument, DVS); type: physicochemical; conditions: for Weight gain percentage at 80% relative humidity: DVS, about 28 mg of crystal
Protocol: About 28 mg of the crystal obtained in Example 1 was taken. The hygroscopicity of the crystal was determined with dynamic moisture adsorption instrument in accordance with the above conditions. The weight gain of crystal form I was within 0.2% at 80% relative humidity.

[2] = Particle size test of crystal form I (micrometer particle size analyzer MS3000, dry method); type: physicochemical; conditions: particle size analysis
Text: The particle size conditions of the crystal form I of the compound of formula I used in the present disclosure are: name/model of detection instrument: micrometer particle size analyzer/MS3000; test method: dry method; sample injection rate: 50%; air pressure: 2.5 bar; slit width: 2.0 mm; refractive index: 1.52; absorption rate: 0.1; shade degree: 0.5% to 6%; background measurement time: 10 s; and sample measurement time: 10 s. The crystal obtained in Example 1 was subject to a particle size test in accordance with the above conditions.

- Weight gain percentage at 80% relative humidity [1]: 0.1213%
- Weight gain percentage at 80% relative humidity ([1]; listed as crystal form I): ≤ 0.2%
- Hygroscopicity class ([1]; guidance principle of drug hygroscopicity, Appendix XIXJ of the Chinese Pharmacopoeia 2015): no or nearly no hygroscopicity
- Specific Area [2]: 807.1 m^2/kg
- particle size Dv10 ([2]; Dv 10): 6.41 µm
- particle size Dv50 ([2]; Dv 50): 20.3 µm
- particle size Dv90 ([2]; Dv 90): 48.2 µm
- particle size Dv95 ([2]; Dv 95): 59.1 µm
SMILES: Cc1cc(OC[P@@]2(=O)OCC[C@@H](c3cccc(Cl)c3)O2)cc(C)c1Cc1ccc(O)c(C(C)C)c1 [Example 1]
